Experimental data reported in patent US11225512B2, “Compositions and methods for ceramide-elevating therapeutic strategies” (University of New Hampshire, priority 2017, dated 2022).

Key:
[1] = system: ceramide neutralization; test: Decitabine treatment of FLT3^ITD transgenic mice, gene expression by qRT-PCR; format: in vivo
Experimental: Decitabine treatment downregulates ceramide neutralization in FLT3^ITD transgenic mice while augmenting gdf1 expression. 8-12 week old mice harboring an internal tandem duplication in the Flt3 gene were treated with the hypomethylating agent, decitabine, at 0.2 mg/kg, 3 times weekly, for 6 weeks. Results were generated using qRT-PCR and normalized to housekeeping genes (Actb, RpII, Tbp). […] Treatment with decitabine reversed ugcg expression and led to downregulation of cers1 as compared to control mice. […] As expected, other related genes are also affected by decitabine treatment.
Hypomethylating Treatment Reverses the Effect of Leukemogenic Transgenes on Ceramide Detoxification. Myeloid hematological malignancies such as AML and myelodysplastic syndrome (MDS) are frequently treated with hypomethylating agents such as decitabine. In particular, treatment and management of MDS commonly utilizes these strategies to attempt to prevent the transformation of this bone marrow failure-like condition to AML. In this experiment, we utilized aged FLT3^ITD transgenic mice treated with/without decitabine and monitored the changes to the expression of genes in the bone marrow that regulate the production of bioactive sphingolipids.

[2] = system: AML cell lines (HL-60, Kasumi-1 and Kasumi-3); test: Gdf1 treatment of AML cell lines, gene expression by qRT-PCR; format: cell-based; conditions: 50 ng/mL, 24 hours; HL-60, Kasumi-1, Kasumi-3; compared to untreated counterparts
Experimental: Gdf1 treatment of AML cell lines triggers downregulation of ceramide neutralization pathways. AML cell lines (HL-60, Kasumi-1 and Kasumi-3), were treated with recombinant human gdf1 at a concentration of 50 ng/mL for 24 hours. Results were obtained via qRT-PCR and compared to housekeeping genes (Actb, RpII).

[3] = system: hematopoietic progenitor cells; test: Gdf1 treatment of bone marrow, flow cytometry immunophenotyping of LT-HSC and MPP; format: cell-based; conditions: 50 ng/mL, 24 hours; bone marrow of hybrid mice
Experimental: Gdf1 treatment promotes quiescence exit of hematopoietic progenitor cells. Bone marrow of hybrid mice was treated with human recombinant Gdf1 at a concentration of 50 ng/mL for 24 hours. Flow cytometry was used in immunophenotyping cells into subpopulations of long-term hematopoietic stem cells (LT-HSC) and multipotent progenitor cells (MPP). LT-HSCs were defined as Lin−, C-kit+, Sca-1+, CD150+, CD48−. MPPs were defined as Lin−, C-kit+, Sca-1+, CD150−, CD48−. Quiescent cells were defined as CD34+.

Molecule | gdf1 expression ([1]; FLT3^ITD mice, decitabine 0.2 mg/kg, 3 times weekly, 6 weeks) | cers1 expression ([1]; FLT3^ITD mice, decitabine 0.2 mg/kg, 3 times weekly, 6 weeks, compared to control mice) | ugcg expression ([1]; FLT3^ITD mice, decitabine 0.2 mg/kg, 3 times weekly, 6 weeks, qRT-PCR normalized to Actb, RpII, Tbp) | relationship between gdf1 and either ugcg or sgms1 expression ([1]; bone marrow of aged FLT3^ITD transgenic mice treated with/without decitabine) | cers1 expression [2] | ugcg expression [2] | cells bearing the CD34 marker (quiescent cells) in LT-HSC and MPP populations [3] | population of MPPs in the overall pool of analyzed cells [3]
Nc1ncn([C@H]2C[C@H](O)[C@@H](CO)O2)c(=O)n1 [decitabine, 5-aza-2′-deoxycytidine] | upregulated | downregulation | reversed | inverse relationship | – | – | – | –
Gdf1: Recombinant human Growth Differentiation Factor 1, a BMP family member and TGF-beta signaling pathway intermediate (protein, listed as Homo sapiens) MPPPQQGPCGHHLLLLLALLLPSLPLTRAPVPPGPAAALLQALGLRDEPQGAPRLRPVPPVMWRLFRRRDPQETRSGSRRTSPGVTLQPCHVEELGVAGNIVRHIPDRGAPTRASEPASAAGHCPEWTVVFDLSAVEPAERPSRARLELRFAAAAAAAPEGGWELSVAQAGQGAGADPGPVLLRQLVPALGPPVRAELLGAAWARNASWPRSLRLALALRPRAPAACARLAEASLLLVTLDPRLCHPLARPRRDAEPVLGGGPGGACRARRLYVSFREVGWHRWVIAPRGFLANYCQGQCALPVALSGSGGPPALNHAVLRALMHAAAPGAADLPCCVPARLSPISVLFFDNSDNVVLRQYEDMVVDECGCR | – | – | – | – | downregulated | downregulated | decrease | increase
